# In PubChem BioAssay (NCI):
#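 Exposure lasted 48 hours, with cells grown in 96-well plates and compounds tested at five concentrations. GI50: concentration for 50% inhibition of growth. TGI marks complete inhibition of growth.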
# Columns and labels:
# Assay in all cases: DTP human tumour cell line panel, 48 h
# 786-0 renal = tested on: 786-0 renal
# A498 renal = tested on: A498 renal
# A549 NSCLC = tested on: A549 NSCLC
# ACHN renal = tested on: ACHN renal
# BT-549 breast = tested on: BT-549 breast
# CAKI-1 renal = tested on: CAKI-1 renal
# CCRF-CEM leukemia = tested on: CCRF-CEM leukemia
# COLO 205 colon = tested on: COLO 205 colon
# DU-145 prostate = tested on: DU-145 prostate
# EKVX NSCLC = tested on: EKVX NSCLC
# HCC-2998 colon = tested on: HCC-2998 colon
# HCT-116 colon = tested on: HCT-116 colon
# HCT-15 colon = tested on: HCT-15 colon
# HL-60(TB) leukemia = tested on: HL-60(TB) leukemia
# HOP-62 NSCLC = tested on: HOP-62 NSCLC
# HOP-92 NSCLC = tested on: HOP-92 NSCLC
# HS 578T breast = tested on: HS 578T breast
# HT29 colon = tested on: HT29 colon
# IGROV1 ovarian = tested on: IGROV1 ovarian
# K-562 leukemia = tested on: K-562 leukemia
# KM12 colon = tested on: KM12 colon
# LOX IMVI melanoma = tested on: LOX IMVI melanoma
# M14 melanoma = tested on: M14 melanoma
# MALME-3M melanoma = tested on: MALME-3M melanoma
# MCF7 breast = tested on: MCF7 breast
# MDA-MB-231 breast = tested on: MDA-MB-231 breast
# MDA-MB-435 = tested on: MDA-MB-435
# MDA-MB-468 breast = tested on: MDA-MB-468 breast
# MOLT-4 leukemia = tested on: MOLT-4 leukemia
# NCI-H226 lung = tested on: NCI-H226 lung
# NCI-H23 lung = tested on: NCI-H23 lung
# NCI/ADR-RES ovarian = tested on: NCI/ADR-RES ovarian
# OVCAR-3 ovarian = tested on: OVCAR-3 ovarian
# OVCAR-4 ovarian = tested on: OVCAR-4 ovarian
# OVCAR-5 ovarian = tested on: OVCAR-5 ovarian
# OVCAR-8 ovarian = tested on: OVCAR-8 ovarian
# PC-3 prostate = tested on: PC-3 prostate
# RPMI-8226 leukemia = tested on: RPMI-8226 leukemia
# RXF 393 renal = tested on: RXF 393 renal
# SF-268 CNS = tested on: SF-268 CNS
# SF-295 CNS = tested on: SF-295 CNS
# SF-539 CNS = tested on: SF-539 CNS
# SK-MEL-2 melanoma = tested on: SK-MEL-2 melanoma
# SK-MEL-28 melanoma = tested on: SK-MEL-28 melanoma
# SK-MEL-5 melanoma = tested on: SK-MEL-5 melanoma
# SK-OV-3 ovarian = tested on: SK-OV-3 ovarian
# SN12C renal = tested on: SN12C renal
# SNB-19 CNS = tested on: SNB-19 CNS
# SNB-75 CNS = tested on: SNB-75 CNS
# T-47D breast = tested on: T-47D breast
# TK-10 renal = tested on: TK-10 renal
# U251 CNS = tested on: U251 CNS
# UACC-257 melanoma = tested on: UACC-257 melanoma
# UACC-62 melanoma = tested on: UACC-62 melanoma
# UO-31 renal = tested on: UO-31 renal
smiles,measurement,setting,value
Nc1cc(-c2c[nH]c3ccc(Cl)cc23)nc2cc(-c3c[nH]c4ccccc34)nn12,GI50,786-0 renal,1.67 µM
same,TGI,786-0 renal,3.67 µM
same,GI50,A498 renal,2.09 µM
same,TGI,A498 renal,7.69 µM
same,GI50,A549 NSCLC,2.76 µM
same,TGI,A549 NSCLC,12.1 µM
same,GI50,ACHN renal,2.76 µM
same,TGI,ACHN renal,7.77 µM
same,GI50,BT-549 breast,4.98 µM
same,TGI,BT-549 breast,17.9 µM
same,GI50,CAKI-1 renal,1.99 µM
same,TGI,CAKI-1 renal,5.28 µM
same,GI50,CCRF-CEM leukemia,2.99 µM
same,TGI,CCRF-CEM leukemia,9.39 µM
same,GI50,COLO 205 colon,1.75 µM
same,TGI,COLO 205 colon,3.6 µM
same,GI50,DU-145 prostate,3.56 µM
same,TGI,DU-145 prostate,12.9 µM
same,GI50,EKVX NSCLC,2.44 µM
same,TGI,EKVX NSCLC,8.51 µM
same,GI50,HCC-2998 colon,1.86 µM
same,TGI,HCC-2998 colon,3.6 µM
same,GI50,HCT-116 colon,1.67 µM
same,TGI,HCT-116 colon,3.12 µM
same,GI50,HCT-15 colon,1.61 µM
same,TGI,HCT-15 colon,3.24 µM
same,GI50,HL-60(TB) leukemia,2.09 µM
same,TGI,HL-60(TB) leukemia,7.43 µM
same,GI50,HOP-62 NSCLC,3.1 µM
same,TGI,HOP-62 NSCLC,10.7 µM
same,GI50,HOP-92 NSCLC,2.1 µM
same,TGI,HOP-92 NSCLC,5.65 µM
same,GI50,HS 578T breast,3.25 µM
same,TGI,HS 578T breast,16.4 µM
same,GI50,HT29 colon,2.04 µM
same,TGI,HT29 colon,4.62 µM
same,GI50,IGROV1 ovarian,3.34 µM
same,TGI,IGROV1 ovarian,12.7 µM
same,GI50,K-562 leukemia,2.15 µM
same,TGI,K-562 leukemia,5.7 µM
same,GI50,KM12 colon,2.02 µM
same,TGI,KM12 colon,4.27 µM
same,GI50,LOX IMVI melanoma,1.75 µM
same,TGI,LOX IMVI melanoma,3.22 µM
same,GI50,M14 melanoma,1.85 µM
same,TGI,M14 melanoma,4.17 µM
same,GI50,MALME-3M melanoma,1.78 µM
same,TGI,MALME-3M melanoma,3.23 µM
same,GI50,MCF7 breast,1.83 µM
same,TGI,MCF7 breast,3.96 µM
same,GI50,MDA-MB-231 breast,1.96 µM
same,TGI,MDA-MB-231 breast,3.6 µM
same,GI50,MDA-MB-435,2.42 µM
same,TGI,MDA-MB-435,7.27 µM
same,GI50,MDA-MB-468 breast,1.45 µM
same,TGI,MDA-MB-468 breast,3.2 µM
same,GI50,MOLT-4 leukemia,1.86 µM
same,TGI,MOLT-4 leukemia,5.04 µM
same,GI50,NCI-H226 lung,3.52 µM
same,TGI,NCI-H226 lung,28 µM
same,GI50,NCI-H23 lung,2.23 µM
same,TGI,NCI-H23 lung,5.5 µM
same,GI50,NCI/ADR-RES ovarian,3.45 µM
same,TGI,NCI/ADR-RES ovarian,14.7 µM
same,GI50,OVCAR-3 ovarian,2.9 µM
same,TGI,OVCAR-3 ovarian,10.5 µM
same,GI50,OVCAR-4 ovarian,3.65 µM
same,TGI,OVCAR-4 ovarian,17.1 µM
same,GI50,OVCAR-5 ovarian,1.9 µM
same,TGI,OVCAR-5 ovarian,4.32 µM
same,GI50,OVCAR-8 ovarian,3.19 µM
same,TGI,OVCAR-8 ovarian,17.3 µM
same,GI50,PC-3 prostate,2.59 µM
same,TGI,PC-3 prostate,7.89 µM
same,GI50,RPMI-8226 leukemia,2.29 µM
same,TGI,RPMI-8226 leukemia,6.98 µM
same,GI50,RXF 393 renal,2.23 µM
same,TGI,RXF 393 renal,6.61 µM
same,GI50,SF-268 CNS,2.75 µM
same,TGI,SF-268 CNS,12.7 µM
same,GI50,SF-295 CNS,1.81 µM
same,TGI,SF-295 CNS,3.61 µM
same,GI50,SF-539 CNS,1.81 µM
same,TGI,SF-539 CNS,3.47 µM
same,GI50,SK-MEL-2 melanoma,2.28 µM
same,TGI,SK-MEL-2 melanoma,6.05 µM
same,GI50,SK-MEL-28 melanoma,1.87 µM
same,TGI,SK-MEL-28 melanoma,4.23 µM
same,GI50,SK-MEL-5 melanoma,2.05 µM
same,TGI,SK-MEL-5 melanoma,4.42 µM
same,GI50,SK-OV-3 ovarian,6.25 µM
same,TGI,SK-OV-3 ovarian,20 µM
same,GI50,SN12C renal,3.63 µM
same,TGI,SN12C renal,14.3 µM
same,GI50,SNB-19 CNS,2.95 µM
same,TGI,SNB-19 CNS,10.7 µM
same,GI50,SNB-75 CNS,1.71 µM
same,TGI,SNB-75 CNS,9.69 µM
same,GI50,T-47D breast,2.61 µM
same,GI50,TK-10 renal,2.9 µM
same,TGI,TK-10 renal,13.3 µM
same,GI50,U251 CNS,1.8 µM
same,TGI,U251 CNS,4.22 µM
same,GI50,UACC-257 melanoma,2.99 µM
same,TGI,UACC-257 melanoma,12.2 µM
same,GI50,UACC-62 melanoma,1.72 µM
same,TGI,UACC-62 melanoma,3.55 µM
same,GI50,UO-31 renal,2.59 µM
same,TGI,UO-31 renal,10.4 µM
